From paper PMC7026418, “The kinase polypharmacology landscape of clinical PARP inhibitors” (Scientific Reports, 2020) come the findings set out here.

Among the targets are CDKL3 (Homo sapiens, UniProt Q8IVW4); EGFR(T790M) (Homo sapiens, UniProt P00533, T790M); ERN1 (Homo sapiens, UniProt O75460); LYN (Homo sapiens, UniProt P07948); NEK7 (Homo sapiens, UniProt Q8TDX7); SBK1 (Homo sapiens, UniProt Q52WX2); TLK2 (Homo sapiens, UniProt Q86UE8).
Test in all cases: biochemical
Set-up in all cases: DiscoveRx KINOMEscan active site-directed competition binding; percent of control kinase bound to immobilised ligand

In a further test the target is T1, CDKL2 (Homo sapiens, UniProt Q92772).
T1 sequence (Q92772 1-493): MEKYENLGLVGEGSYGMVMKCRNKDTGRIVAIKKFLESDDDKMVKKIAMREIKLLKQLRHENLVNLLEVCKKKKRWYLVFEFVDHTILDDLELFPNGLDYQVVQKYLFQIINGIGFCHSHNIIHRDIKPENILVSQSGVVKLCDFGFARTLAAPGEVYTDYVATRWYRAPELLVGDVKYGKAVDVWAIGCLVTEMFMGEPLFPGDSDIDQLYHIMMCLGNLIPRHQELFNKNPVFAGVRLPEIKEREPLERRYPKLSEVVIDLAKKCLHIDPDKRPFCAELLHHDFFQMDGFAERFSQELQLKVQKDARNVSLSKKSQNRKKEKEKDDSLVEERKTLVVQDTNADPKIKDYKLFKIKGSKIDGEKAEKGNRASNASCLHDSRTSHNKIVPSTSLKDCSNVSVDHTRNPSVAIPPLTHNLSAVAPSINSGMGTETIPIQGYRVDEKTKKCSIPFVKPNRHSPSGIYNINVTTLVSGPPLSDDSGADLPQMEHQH

The next test addresses T2, MAP3K2 (Homo sapiens, UniProt Q9Y2U5).
T2 sequence (Q9Y2U5 1-619): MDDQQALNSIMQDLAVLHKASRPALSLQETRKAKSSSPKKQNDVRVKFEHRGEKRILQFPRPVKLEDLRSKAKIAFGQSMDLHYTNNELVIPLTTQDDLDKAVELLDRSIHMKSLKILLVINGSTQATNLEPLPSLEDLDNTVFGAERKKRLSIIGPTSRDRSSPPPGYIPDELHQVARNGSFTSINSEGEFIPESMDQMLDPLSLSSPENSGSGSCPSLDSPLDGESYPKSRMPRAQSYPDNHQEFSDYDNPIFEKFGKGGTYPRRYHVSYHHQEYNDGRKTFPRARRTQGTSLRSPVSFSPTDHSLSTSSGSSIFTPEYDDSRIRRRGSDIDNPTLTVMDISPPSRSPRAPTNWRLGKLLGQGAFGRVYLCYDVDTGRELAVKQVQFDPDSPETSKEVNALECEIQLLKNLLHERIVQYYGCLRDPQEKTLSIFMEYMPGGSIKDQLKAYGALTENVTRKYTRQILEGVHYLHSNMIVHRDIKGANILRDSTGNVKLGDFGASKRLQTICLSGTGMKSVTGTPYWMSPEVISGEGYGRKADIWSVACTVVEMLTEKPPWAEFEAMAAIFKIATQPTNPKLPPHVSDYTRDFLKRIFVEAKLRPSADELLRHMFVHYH

The target of the next test is T3, NIM1 (Homo sapiens, UniProt Q8IY84).
T3 construct: gene NIM1K

In the next test the target is T4, TBK1 (Homo sapiens, UniProt Q9UHD2).
T4 sequence (Q9UHD2 1-729): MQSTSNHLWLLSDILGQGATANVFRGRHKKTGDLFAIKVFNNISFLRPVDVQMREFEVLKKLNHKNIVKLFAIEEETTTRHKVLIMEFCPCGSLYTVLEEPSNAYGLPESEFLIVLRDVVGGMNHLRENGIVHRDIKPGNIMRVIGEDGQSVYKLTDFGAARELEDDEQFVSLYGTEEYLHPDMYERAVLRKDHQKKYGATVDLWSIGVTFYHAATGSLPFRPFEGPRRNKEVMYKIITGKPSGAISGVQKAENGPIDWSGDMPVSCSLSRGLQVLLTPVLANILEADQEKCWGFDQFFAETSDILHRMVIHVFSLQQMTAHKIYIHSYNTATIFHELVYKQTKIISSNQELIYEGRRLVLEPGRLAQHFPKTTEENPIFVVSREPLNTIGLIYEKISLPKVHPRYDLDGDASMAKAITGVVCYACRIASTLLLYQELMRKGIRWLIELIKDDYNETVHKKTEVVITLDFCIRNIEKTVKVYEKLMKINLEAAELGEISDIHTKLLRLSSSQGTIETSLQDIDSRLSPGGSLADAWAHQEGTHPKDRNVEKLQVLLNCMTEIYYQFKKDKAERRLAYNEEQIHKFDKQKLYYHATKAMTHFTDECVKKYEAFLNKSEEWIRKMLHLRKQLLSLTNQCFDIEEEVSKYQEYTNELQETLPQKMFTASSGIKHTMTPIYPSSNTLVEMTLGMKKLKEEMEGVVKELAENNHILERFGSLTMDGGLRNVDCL

Where [1] appears, read: read-out: Niraparib (MK-4827) / %Ctrl @ 10000nM.
Where [2] appears, read: read-out: Olaparib / %Ctrl @ 10000nM.
Where [3] appears, read: read-out: Rucaparib / %Ctrl @ 10000nM, binding competition, % of control.
[4] abbreviates: read-out: Talazoparib (BMN 673) / %Ctrl @ 10000nM.

Read-outs that look alike come from different tables or passages of the source.

Chain of CDKL3 (Q8IVW4 whole entry): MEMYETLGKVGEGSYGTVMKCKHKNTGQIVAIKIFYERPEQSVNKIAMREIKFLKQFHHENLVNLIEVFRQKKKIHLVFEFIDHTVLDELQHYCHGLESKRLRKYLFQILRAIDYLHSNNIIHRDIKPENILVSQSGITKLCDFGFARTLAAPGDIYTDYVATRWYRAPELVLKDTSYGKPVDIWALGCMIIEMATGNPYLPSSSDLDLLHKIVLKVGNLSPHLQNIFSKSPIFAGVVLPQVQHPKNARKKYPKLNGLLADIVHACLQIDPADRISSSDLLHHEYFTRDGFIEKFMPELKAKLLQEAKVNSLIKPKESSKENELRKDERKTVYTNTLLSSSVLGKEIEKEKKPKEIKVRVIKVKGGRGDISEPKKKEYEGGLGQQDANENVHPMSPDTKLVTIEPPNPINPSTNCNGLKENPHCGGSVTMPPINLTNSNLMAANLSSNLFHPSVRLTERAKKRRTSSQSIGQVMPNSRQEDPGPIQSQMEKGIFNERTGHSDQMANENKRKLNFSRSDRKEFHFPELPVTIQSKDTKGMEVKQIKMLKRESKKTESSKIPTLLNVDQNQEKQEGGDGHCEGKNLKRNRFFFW
Chain of TLK2 (Q86UE8 whole entry): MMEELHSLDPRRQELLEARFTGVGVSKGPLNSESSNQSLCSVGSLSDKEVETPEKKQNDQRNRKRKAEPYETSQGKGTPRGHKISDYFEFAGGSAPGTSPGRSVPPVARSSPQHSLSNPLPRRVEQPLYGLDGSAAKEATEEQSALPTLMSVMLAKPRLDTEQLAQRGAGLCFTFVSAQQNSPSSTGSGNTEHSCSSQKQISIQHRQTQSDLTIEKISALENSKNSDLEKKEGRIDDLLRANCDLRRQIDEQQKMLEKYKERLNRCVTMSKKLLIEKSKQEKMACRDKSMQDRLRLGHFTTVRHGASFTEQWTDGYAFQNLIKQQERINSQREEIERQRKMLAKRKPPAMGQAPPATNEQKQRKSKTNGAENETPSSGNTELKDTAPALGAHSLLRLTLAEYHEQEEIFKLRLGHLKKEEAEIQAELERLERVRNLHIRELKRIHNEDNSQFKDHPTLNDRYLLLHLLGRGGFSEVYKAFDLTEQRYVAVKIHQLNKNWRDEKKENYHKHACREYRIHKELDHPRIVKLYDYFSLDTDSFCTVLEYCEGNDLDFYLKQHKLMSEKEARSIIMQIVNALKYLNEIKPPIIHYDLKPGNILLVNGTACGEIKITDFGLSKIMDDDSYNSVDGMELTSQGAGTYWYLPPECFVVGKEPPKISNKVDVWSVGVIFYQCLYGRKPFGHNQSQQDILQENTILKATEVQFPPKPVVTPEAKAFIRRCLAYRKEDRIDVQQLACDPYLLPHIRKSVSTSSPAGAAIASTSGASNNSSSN
Chain of LYN (P07948 whole entry): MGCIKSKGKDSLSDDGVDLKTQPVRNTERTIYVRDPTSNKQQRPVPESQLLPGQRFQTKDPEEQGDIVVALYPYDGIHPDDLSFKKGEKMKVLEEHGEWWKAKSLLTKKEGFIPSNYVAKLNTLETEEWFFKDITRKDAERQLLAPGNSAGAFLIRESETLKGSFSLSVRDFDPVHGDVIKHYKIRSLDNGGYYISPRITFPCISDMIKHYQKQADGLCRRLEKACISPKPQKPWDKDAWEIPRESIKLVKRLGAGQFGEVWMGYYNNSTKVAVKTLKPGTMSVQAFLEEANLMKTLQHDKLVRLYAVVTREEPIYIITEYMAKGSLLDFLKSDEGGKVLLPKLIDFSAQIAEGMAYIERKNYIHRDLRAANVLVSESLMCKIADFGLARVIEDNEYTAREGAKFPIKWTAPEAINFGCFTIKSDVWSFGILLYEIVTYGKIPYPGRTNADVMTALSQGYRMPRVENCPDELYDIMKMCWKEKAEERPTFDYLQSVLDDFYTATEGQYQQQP
Chain of NEK7 (Q8TDX7 whole entry): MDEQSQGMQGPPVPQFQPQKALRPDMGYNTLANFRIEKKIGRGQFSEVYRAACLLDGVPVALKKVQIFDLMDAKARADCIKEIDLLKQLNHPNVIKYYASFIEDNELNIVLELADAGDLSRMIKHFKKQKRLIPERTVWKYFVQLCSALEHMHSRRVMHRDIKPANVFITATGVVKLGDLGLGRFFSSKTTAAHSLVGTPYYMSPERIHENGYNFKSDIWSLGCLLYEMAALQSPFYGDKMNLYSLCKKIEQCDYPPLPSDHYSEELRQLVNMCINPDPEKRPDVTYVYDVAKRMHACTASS
Chain of EGFR(T790M) (P00533 whole entry T790M): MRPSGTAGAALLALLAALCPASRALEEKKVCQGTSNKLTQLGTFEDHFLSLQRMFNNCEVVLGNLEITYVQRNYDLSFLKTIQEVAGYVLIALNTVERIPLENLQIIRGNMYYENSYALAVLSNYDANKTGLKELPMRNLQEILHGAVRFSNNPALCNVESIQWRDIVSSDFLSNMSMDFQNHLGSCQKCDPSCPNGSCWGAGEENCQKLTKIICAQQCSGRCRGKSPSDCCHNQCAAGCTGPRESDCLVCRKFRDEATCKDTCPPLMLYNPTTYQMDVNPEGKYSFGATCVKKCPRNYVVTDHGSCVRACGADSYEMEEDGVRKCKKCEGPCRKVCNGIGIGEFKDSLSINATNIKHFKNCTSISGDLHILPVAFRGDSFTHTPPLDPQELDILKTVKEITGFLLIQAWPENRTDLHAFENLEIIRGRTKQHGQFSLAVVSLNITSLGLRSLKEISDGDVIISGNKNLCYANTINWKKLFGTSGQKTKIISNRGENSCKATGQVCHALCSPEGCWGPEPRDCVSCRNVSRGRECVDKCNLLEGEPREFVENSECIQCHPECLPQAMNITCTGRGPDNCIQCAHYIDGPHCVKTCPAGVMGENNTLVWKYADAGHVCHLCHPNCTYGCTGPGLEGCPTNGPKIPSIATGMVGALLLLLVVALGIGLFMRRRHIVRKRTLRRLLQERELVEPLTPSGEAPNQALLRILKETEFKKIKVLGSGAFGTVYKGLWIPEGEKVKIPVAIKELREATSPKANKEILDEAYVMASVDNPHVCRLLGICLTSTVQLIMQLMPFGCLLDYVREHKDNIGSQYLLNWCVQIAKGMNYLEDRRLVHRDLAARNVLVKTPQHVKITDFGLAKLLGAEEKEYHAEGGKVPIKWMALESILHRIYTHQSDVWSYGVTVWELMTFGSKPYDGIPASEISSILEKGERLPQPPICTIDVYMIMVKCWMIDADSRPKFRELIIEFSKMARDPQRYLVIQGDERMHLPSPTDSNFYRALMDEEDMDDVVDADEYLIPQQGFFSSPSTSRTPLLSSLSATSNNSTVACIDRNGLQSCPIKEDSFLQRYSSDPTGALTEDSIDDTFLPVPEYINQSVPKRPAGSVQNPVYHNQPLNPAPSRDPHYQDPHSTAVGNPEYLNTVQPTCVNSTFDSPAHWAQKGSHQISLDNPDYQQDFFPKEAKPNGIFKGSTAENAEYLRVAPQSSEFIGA
T3 sequence (Q8IY84 whole entry): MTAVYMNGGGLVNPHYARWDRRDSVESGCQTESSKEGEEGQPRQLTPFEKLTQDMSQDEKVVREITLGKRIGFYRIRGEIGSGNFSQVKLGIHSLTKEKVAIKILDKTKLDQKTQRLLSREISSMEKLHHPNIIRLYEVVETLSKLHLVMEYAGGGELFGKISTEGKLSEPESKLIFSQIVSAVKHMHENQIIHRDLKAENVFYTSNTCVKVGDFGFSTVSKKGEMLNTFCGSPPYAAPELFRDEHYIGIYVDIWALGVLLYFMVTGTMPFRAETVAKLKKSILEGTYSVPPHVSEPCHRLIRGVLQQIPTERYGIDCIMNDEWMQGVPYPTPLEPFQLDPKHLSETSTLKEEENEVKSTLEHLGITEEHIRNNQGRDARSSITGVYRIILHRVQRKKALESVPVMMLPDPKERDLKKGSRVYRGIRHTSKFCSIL
Chain of SBK1 (Q52WX2 whole entry): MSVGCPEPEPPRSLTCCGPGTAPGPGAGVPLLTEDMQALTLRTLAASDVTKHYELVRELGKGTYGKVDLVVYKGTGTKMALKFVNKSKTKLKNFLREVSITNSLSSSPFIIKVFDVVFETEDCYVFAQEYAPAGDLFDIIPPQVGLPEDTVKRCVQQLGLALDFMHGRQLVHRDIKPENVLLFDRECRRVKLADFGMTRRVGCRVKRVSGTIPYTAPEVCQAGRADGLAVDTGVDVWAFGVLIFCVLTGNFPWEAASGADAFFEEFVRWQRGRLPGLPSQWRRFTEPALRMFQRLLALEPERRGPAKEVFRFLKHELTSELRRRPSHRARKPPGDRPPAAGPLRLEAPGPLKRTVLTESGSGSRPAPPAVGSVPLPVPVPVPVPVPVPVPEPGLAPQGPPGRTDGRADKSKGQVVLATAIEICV

Take `NC(=O)c1cccc2cn(-c3ccc([C@@H]4CCCNC4)cc3)nc12` [Niraparib]: the percent of control binding at 10 µM came out at 23% at CDKL2 (setting [1]); 64% at CDKL3 (setting [1]); 93% on EGFR(T790M) (setting [1]); 100% on ERN1 (setting [1]); 71% on LYN (setting [1]); 97% at MAP3K2 (setting [1]). The percent of control binding at 10 µM came to 88% on NEK7 (setting [1]); 100% on NIM1 (setting [1]); 83% at SBK1 (setting [1]); 75% at TBK1 (setting [1]); 95% at TLK2 (setting [1]).

For `O=C(c1cc(Cc2n[nH]c(=O)c3ccccc23)ccc1F)N1CCN(C(=O)C2CC2)CC1` [Olaparib], the percent of control binding at 10 µM was 99% on CDKL2 (setting [2]); 100% at CDKL3 (setting [2]); 84% on EGFR(T790M) (setting [2]); 88% on ERN1 (setting [2]); 93% on LYN (setting [2]); 92% at MAP3K2 (setting [2]). For the same compound, the percent of control binding at 10 µM on NEK7 (setting [2]) turned out to be 98%; on NIM1 (setting [2]), 83%; at SBK1 (setting [2]), 95%; at TBK1 (setting [2]) it was 91%; on TLK2 (setting [2]), 95%.

In the case of `CNCc1ccc(-c2[nH]c3cc(F)cc4c3c2CCNC4=O)cc1` [Rucaparib], the percent of control binding at 10 µM stood at 59% on CDKL2 (setting [3]); 100% at CDKL3 (setting [3]); 75% at EGFR(T790M) (setting [3]); 75% at ERN1 (setting [3]); 89% at LYN (setting [3]); 82% on MAP3K2 (setting [3]). Also, the percent of control binding at 10 µM at NEK7 (setting [3]) came out at 100%; on NIM1 (setting [3]) it was 71%; on SBK1 (setting [3]), 65%; at TBK1 (setting [3]) it was 87%; on TLK2 (setting [3]) it was 84%.

Turning to `Cn1ncnc1[C@H]1c2n[nH]c(=O)c3cc(F)cc(c23)N[C@@H]1c1ccc(F)cc1` [Talazoparib], the percent of control binding at 10 µM stood at 100% on CDKL2 (setting [4]); 97% on CDKL3 (setting [4]); 65% on EGFR(T790M) (setting [4]); 91% on ERN1 (setting [4]); 87% at LYN (setting [4]); 98% at MAP3K2 (setting [4]). Also, the percent of control binding at 10 µM at NEK7 (setting [4]) is 80%; on NIM1 (setting [4]), 79%; on SBK1 (setting [4]) it was 96%; on TBK1 (setting [4]), 44%; on TLK2 (setting [4]) it was 84%.
